Source: ChEMBL document CHEMBL1156415, “Selective inhibition of porcine endogenous retrovirus replication in human cells by acyclic nucleoside phosphonates” (Antimicrob Agents Chemother, 2007)

Tests used:
[1] = test system: Porcine endogenous retrovirus; assay: Antiviral activity against PERV infected in human 293T cells assessed as inhibition of proximal DNA synthesis after 24 hrs by RT-PCR; assay type: functional, organism-based; settings: Porcine type-C oncovirus, HEK-293T
[2] = Cytotoxicity against human 293T cells assessed as inhibition of cell proliferation by tetrazolium dye method; assay type: cell-based, HEK-293T
[3] = target: Human immunodeficiency virus type 1 reverse transcriptase (Human immunodeficiency virus 1, UniProt Q72547); assay: Inhibition of HIV1 recombinant reverse transcriptase
[4] = Inhibition of PERV reverse transcriptase from Kagoshima pig KK5 cells; design: species or system Porcine endogenous retrovirus
[5] = Inhibition of PERV reverse transcriptase from Kagoshima pig DRK4 cells; design: species or system Porcine endogenous retrovirus
[6] = Inhibition of PERV reverse transcriptase from pig PK15 cells; assay type: cell-based, Porcine endogenous retrovirus

Row | SMILES | EC50 [1] | CC50 [2] | IC50 [3] | IC50 [4] | IC50 [5] | IC50 [6]
1 | Cc1cn([C@H]2C[C@H](O)[C@](CO)(N=[N+]=[N-])O2)c(=O)[nH]c1=O | > 100000 nM | > 100000 nM |  |  |  | 
2 | Nc1cc(OCCOCP(=O)(O)O)nc(N)n1 | 180 nM | > 100000 nM |  |  |  | 
3 | C[C@H](Cn1cnc2c(N)nc(N)nc21)OCP(=O)(O)O | 280 nM | > 100000 nM |  |  |  | 
4 | Nc1ncnc2c1ncn2CCOCP(=O)(O)O [ADEFOVIR] | 3400 nM | > 100000 nM |  |  |  | 
5 | C#C[C@@]1(CO)C=C[C@H](n2cc(C)c(=O)[nH]c2=O)O1 [CENSAVUDINE] | > 100000 nM | > 100000 nM |  |  |  | 
6 | Nc1ccn([C@@H]2CS[C@H](CO)O2)c(=O)n1 [LAMIVUDINE] | > 100000 nM | > 100000 nM |  |  |  | 
7 | Cc1ccnc2c1NC(=O)c1cccnc1N2C1CC1 [NEVIRAPINE] | > 100000 nM | > 100000 nM |  |  |  | 
8 | Cc1cn([C@H]2C=C[C@@H](COP(=O)(O)OP(=O)(O)OP(=O)(O)O)O2)c(=O)[nH]c1=O [STAVUDINE TRIPHOSPHATE] |  |  | 36 nM | 150 nM | 170 nM | 450 nM
9 | Cc1cn([C@H]2C=C[C@@H](CO)O2)c(=O)[nH]c1=O [STAVUDINE] | 7800 nM | > 100000 nM |  |  |  | 
10 | C[C@H](Cn1cnc2c(N)ncnc21)OCP(=O)(O)O [TENOFOVIR ANHYDROUS] | 2800 nM | > 100000 nM |  |  |  | 
11 | Cc1cn([C@H]2C[C@H](N=[N+]=[N-])[C@@H](COP(=O)(O)OP(=O)(O)OP(=O)(O)O)O2)c(=O)[nH]c1=O [ZIDOVUDINE TRIPHOSPHATE] |  |  | 54 nM | 19 nM | 20 nM | 59 nM
12 | Cc1cn([C@H]2C[C@H](N=[N+]=[N-])[C@@H](CO)O2)c(=O)[nH]c1=O [ZIDOVUDINE] | 23 nM | > 10000 nM |  |  |  | 
